Test results from patent US20070042409A1 (priority 2005, published 2007).
Positions count from the first letter of the chain named. Where two headings read alike, the source gives them in different places. Each block holds one molecule with its values, some of them ahead of it. No end group written: not given here.

How the values were obtained:
[1] = test system: obestatin receptors, crude plasma membrane preparation of rat jejunum; assay: I^125-obestatin binding to crude plasma membrane preparation of rat jejunum; conditions: for inhibition of I^125-obestatin binding: jejunum preparation; for competition of I^125-obestatin binding: rat jejunum preparation
Procedure: Mixture of the peptide (20 μg) and 1 mCi [^125I] NaI was transferred to precoated Iodogen vials and incubated for 4 min. The ^125I-labeled peptide was applied to a Sep-Pak C18 cartridge (Waters, Milford, Mass.) before elution with 60% acetonitrile/0.1% TFA. For radioligand binding assays, rat jejunum or other tissues were washed with buffer A (20 mM Hepes, 5 mM EDTA, 1 mM dithiothreitol (DTT), 10 μM amidinophenylmethanesulfonyl fluoride, 5 mg/L leupeptin, 100 mM KCl, pH 7.5), cut into small pieces and homogenized using a Physcotron motorized homogenizer. The homogenates were centrifuged at 1,000 g for 5 min. and the supernatant was centrifuged at 300,000 g for 1 h at 2° C. The pellets (crude membrane fractions) were resuspended with buffer A without KCl, quickly frozen under liquid nitrogen, and stored at −80° C. until use. […] After incubation, the tubes were centrifuged for 10 min. at 10,000 g, and the pellet was washed twice in ice-cold PBS before counting using a γ-spectrophotometer. Specific binding was calculated by subtracting nonspecific binding from total binding.

[2] = biological target: T1, GPR39 (Homo sapiens, UniProt O43194); assay: cAMP production in CHO cells overexpressing GPR39; format: cell-based
T1 construct: expressed in transfected cells; host or cells: CHO cells
T1 sequence (O43194 1-453): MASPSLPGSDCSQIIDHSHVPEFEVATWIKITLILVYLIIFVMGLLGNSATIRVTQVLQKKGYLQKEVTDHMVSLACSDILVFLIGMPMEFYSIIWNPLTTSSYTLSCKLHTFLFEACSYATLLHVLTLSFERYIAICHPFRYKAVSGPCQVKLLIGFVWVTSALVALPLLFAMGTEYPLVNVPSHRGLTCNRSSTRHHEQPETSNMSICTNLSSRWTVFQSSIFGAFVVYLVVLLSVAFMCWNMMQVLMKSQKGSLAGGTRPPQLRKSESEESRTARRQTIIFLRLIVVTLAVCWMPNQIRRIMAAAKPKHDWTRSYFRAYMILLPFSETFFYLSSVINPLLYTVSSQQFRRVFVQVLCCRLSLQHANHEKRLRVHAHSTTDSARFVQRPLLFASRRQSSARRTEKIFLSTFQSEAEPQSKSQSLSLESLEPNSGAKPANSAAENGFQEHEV

[3] = biological target: T1, GPR39; assay: I^125-obestatin binding to CHO cells overexpressing GPR39
[4] = Food intake in food-deprived mice after intraperitoneal peptide treatment; format: in vivo; conditions: adult male mice, deprived of food 16 h, measured at 1, 3 and 5 h
Procedure: (§1) Analysis of gastrointestinal functions. Eight-week-old C57BL6 male mice were housed individually in a regulated environment. Before intraperitoneal treatment with different peptides, mice were deprived of food for 16 h with free access to water. Food intake was measured by placing preweighed pellets in the cage and weighing uneaten pellets at 1, 3 and 5 h after treatment. To estimate gastric emptying responses, mice deprived of food for 16 h were given food pellets for 90 min. before injection of different hormones or saline. After treatment, mice were deprived of food again and killed 2 h later. The stomach was excised at the pylorus and cardia before weighing. Gastric emptying was calculated by subtracting the stomach weight of treated mice from those killed at the time of the hormone injection.

[5] = Gastric emptying in mice; format: in vivo; conditions: adult male mice, intraperitoneal, killed 2 h after treatment
Procedure: as §1

[6] = Body weight gain in adult male rats; format: in vivo; conditions: for body weight: 1 μmol/kg body weight, thrice daily
[7] = test system: cultured rat pituitary cells; assay: GH secretion from cultured rat pituitary cells
Procedure: Pituitary cell cultures. Anterior pituitaries were removed from adult male Sprague-Dawley rats and dispersed with 0.3% collagenase, 0.1% hyaluronidase and DNase I (10 μg/ml). The cell suspension was centrifuged at 300 g for 5 min. and the cells were washed twice before incubated in DMEM containing 0.1% bovine serum albumin (BSA), penicillin (100 units/ml), streptomycin (100 μg/ml), fungizone (2.5 μg/ml) and 10% fetal calf serum. Cells were seeded onto poly-lysine-coated 24-well plates at a density of 2˜3×10^5 cells/well. Cultures were kept in a humidified atmosphere of 5% CO2 and 95% air at 37° C. […] Media was removed and rat GH was measured by an ELISA.

[8] = test system: jejunum muscle strips; assay: Isometric force measurement of jejunum muscle strips
Procedure: Isometric force measurements. Jejunum muscle strips (˜1 cm in length) were cut along the longitudinal axis of the circular muscle layer, and the mucosa was removed to minimize endogenous peptides. Muscle strips were mounted to a TIS8105R (Kent Scientific Corporation, Torrington, Conn.) isometric strain gauge and immersed in a 5 ml organ bath maintained at 37° C. with oxygenated KRB [Krebs-Ringer phosphate buffer, consisting of 50 mM HEPES, 100 mM NaCl, 5 mM KCl, and 1 mM each of MgCl2, NaH2PO4, and CaCl2] as described earlier (Porcher et al. (2005) Am J Physiol Gastrointest Liver Physiol 288(5): G1091-103.). A resting force of 1.0 g was applied to intestinal muscles and a 1.5 h equilibration period was allowed before testing of different peptides during a 5 min. period by incubating muscles with peptides at desired concentrations. After each test, muscle strips were washed with fresh KRB for 20 min. to allow full recovery of basal contractile activities. Maximal contraction was evaluated at the beginning and end of each experiment following treatment with 10 μM of acetylcholine chloride. Contractility data were digitized and stored in a computer using the Acknowledge software (MP 100, Biopac Systems, Inc., Goleta, Calif.). Magnitude of contractile strength is expressed as % of maximal contraction induced by acetylcholine.

[9] = biological target: T2, GHSR (Homo sapiens, UniProt Q92847); assay: cAMP production in CHO cells expressing GHSR, with or without chimeric Gsq protein; format: cell-based; conditions: without Gsq
T2 construct: expressed in transfected cells; host or cells: CHO cells
T2 sequence (Q92847 whole entry, species assumed): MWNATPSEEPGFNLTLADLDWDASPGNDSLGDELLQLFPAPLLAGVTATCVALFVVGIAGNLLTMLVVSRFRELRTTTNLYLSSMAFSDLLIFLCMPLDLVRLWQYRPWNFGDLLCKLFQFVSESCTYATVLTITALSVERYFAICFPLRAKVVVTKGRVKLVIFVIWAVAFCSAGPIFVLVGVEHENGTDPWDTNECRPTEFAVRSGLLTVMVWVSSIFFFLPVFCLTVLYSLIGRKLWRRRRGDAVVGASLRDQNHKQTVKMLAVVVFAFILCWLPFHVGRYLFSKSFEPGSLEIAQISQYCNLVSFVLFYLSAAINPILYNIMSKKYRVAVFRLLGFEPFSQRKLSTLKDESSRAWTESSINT

[10] = biological target: T1, GPR39; assay: SRE promoter-luciferase reporter in cells cotransfected with GPR39; format: cell-based; conditions: cotransfection of GPR39 and SRE promoter-luciferase construct
[11] = biological target: T3, V50-GPR39 (Homo sapiens, UniProt O43194, A50V); conditions: ratio of affinities to obestatin
T3 sequence (O43194 1-453 A50V): T1 sequence (O43194 1-453) with A50V

[12] = biological target: T4, GPR39 (wild type A50-GPR39) (human, UniProt O43194 1-453); assay: displacement of I^125-obestatin from GPR39
T4 construct: also called obestatin receptor; orphan receptor GPR39
T4 sequence: T1 sequence (O43194 1-453)

- competition of I^125-obestatin binding [1]: not competed
- cAMP production [2]: ineffective
Molecule: CC[C@H](C)[C@H](NC(=O)[C@@H]1CCCN1C(=O)[C@@H](NC(=O)[C@@H](N)Cc1ccccc1)C(C)C)C(=O)N[C@@H](Cc1ccccc1)C(=O)N[C@H](C(=O)N[C@@H](Cc1ccc(O)cc1)C(=O)NCC(=O)N[C@@H](CCC(=O)O)C(=O)N[C@@H](CC(C)C)C(=O)N[C@@H](CCC(N)=O)C(=O)N[C@@H](CCCNC(=N)N)C(=O)N[C@@H](CCSC)C(=O)N[C@@H](CCC(N)=O)C(=O)N[C@@H](CCC(=O)O)C(=O)N[C@@H](CCCCN)C(=O)N[C@@H](CCC(=O)O)C(=O)N[C@@H](CCCNC(=N)N)C(=O)N[C@@H](CC(N)=O)C(=O)N[C@@H](CCCCN)C(=O)NCC(=O)N[C@@H](CCC(N)=O)C(=O)O)[C@@H](C)O [motilin]

- competition of I^125-obestatin binding [1]: not competed
Molecule: neuromedin U: peptide purchased from Phoenix Pharmaceuticals (FRVDEEFQSPFASQSRGYFLFRPRN; ends and bridges not checked; UniProt P48645 142-166, looked up)

- Kd ([1]; labeled obestatin, rat jejunum crude plasma membrane): 4 nM
- competition of obestatin binding to GPR39 [3]: competed
- cAMP response [9]: did not respond
- SRE promoter-luciferase signaling [10]: conferred obestatin
- affinity of V50-GPR39 relative to wild type A50-GPR39 [11]: two-fold higher affinity
Molecule: synthesized amidated human obestatin, 23 residue peptide derived from proghrelin; FNAPFDVGIKLSGVQYQQHSQAL-NH2 (SEQ ID NO:4); also used iodinated as radioligand
- food intake [4]: suppressed food intake for five hours in a dose-dependent manner
- gastric emptying activity [5]: sustained suppression of gastric emptying activity
- body weight [6]: suppressed body weight gain
- body weight, cotreatment with ghrelin ([6]; cotreatment of obestatin with ghrelin): antagonized the orexigenic action of ghrelin
- contractile activity of jejunum muscle strips in presence of ghrelin ([8]; effect on stimulatory effect of ghrelin): antagonized the known stimulatory effect of ghrelin
- contractile activity of jejunum muscle strips ([8]; isometric force measurement): decreased contractile activity
- cAMP production [2]: dose-dependent increases in cAMP production
- GH secretion ([7]; 100 nM, cultured rat pituitary cells, 1 h, control 1.04+/−0.03): 1.04+/−0.03 ng/culture

More lines, now with the values behind:

Molecule: Nc1nc2c(ncn2[C@@H]2O[C@H](COP(=O)(O)OP(=O)(O)OP(O)(O)=S)[C@@H](O)[C@H]2O)c(=O)[nH]1 [GTPγS]
- inhibition of I^125-obestatin binding ([1]; GTPγS 1 uM): 5%
- inhibition of I^125-obestatin binding ([1]; GTPγS 10 uM): 20%
- inhibition of I^125-obestatin binding ([1]; GTPγS 100 uM): 45%

Molecule: (des1-10)obestatin: truncated obestatin lacking residues 1-10 (LSGVQYQQHSQAL)
- competition of I^125-obestatin binding [1]: less effective than obestatin
- competition of obestatin binding to GPR39 [3]: less effective

Molecule: NA-obestatin: non-amidated obestatin, synthesized by GL Biochem
- food intake [4]: minimally effective
- gastric emptying activity [5]: less effective
- competition of I^125-obestatin binding [1]: less effective than obestatin

Molecule: ghrelin: n-octanoylated 28 amino acid peptide, endogenous GHSR ligand; purchased from Phoenix Pharmaceuticals (GSSFLSPEHQRVQQRKESKKPPAKLQPR; not fully specified (residue 3); UniProt Q9UBU3 24-51, looked up) [reference compound]
- food intake [4]: minimally effective
- gastric emptying activity [5]: ineffective
- body weight [6]: increased body weight
- competition of I^125-obestatin binding [1]: not competed
- cAMP production [2]: ineffective
- GH secretion [7]: 2.32+/−0.08 ng/culture

Molecule: urocortin: peptide injected in mice as positive control for food intake suppression (DNPSLSIDLTFHLLRTLLELARTQSQRERAEQNRIIFDSV; ends and bridges not checked; UniProt P55089 83-122, looked up) [reference compound]
- food intake [4]: suppressed food intake

B1: (des1-10)obestatin (peptide)
peptide: LSGVQYQQHSQAL
modifications: ends and bridges not checked
notes: Synthetic obestatin lacking residues 1-10; The range 11-23 is derived from the name; also called truncated (des1-10)obestatin
- binding result [12]: binds
